Results on three molecules are retold here after patent publication US20240100120A1 (priority 2019, published 2024).

The subject of assay [1] is fentanyl OIRD (integrated phrenic nerve activity, iPNA). The note with it: rat, in vivo, iv.
Assay [2] concerns integrated phrenic nerve activity (iPNA); opioid OIRD. As to conditions: rat, in vivo.
Assay [3] relates to side effects (e.g., respiratory depression) of opioid receptor agonists. As to conditions: oxytocin 0.32 mg/kg subcutaneously; heroin 0.1-1.0 mg/kg; rhesus monkeys.
In assay [4] the test system is opioid self-administration. The note with it: Kovacs G L, et al. Life Sci. 1985; cited from earlier work.
The test system of the next assay is hypopnea and apnea. As to conditions: human sleep apnea patients; cited from earlier work.

Where a SMILES comes first, the peptide text is derived from it. Bridges are numbered along the chain shown (N, C = ends). [ ]: non-standard residue; d: D form. Orn = NCCC[C@H](N)C(=O)O; Mpa = O=C(O)CCS

For “(Phenylacl-D-Tyr(Et)2,Lys6,Arg8,des-Gly9)-vasopressin trifluoroacetate [V1aRX]”, in assay [1], the “effect of V1aR antagonism on OXTN reversal of OIRD” value is recorded as “significantly enhances reversal” and the “effect of V1aR antagonism on high dose OXTN reversal of OIRD” value is “efficacy is restored”.

In the case of `CC[C@H](C)[C@@H]1NC(=O)[C@H](Cc2ccc(O)cc2)NC(=O)[C@@H](N)CSSC[C@@H](C(=O)N2CCC[C@H]2C(=O)N[C@@H](CC(C)C)C(=O)NCC(N)=O)NC(=O)[C@H](CC(N)=O)NC(=O)[C@H](CCC(N)=O)NC1=O` [oxytocin], the “reduction of OIRD by OXT delivered into the PVN” value in assay [2] was “does not reduce OIRD”. Besides, in assay [3], the “reversal of side effects (e.g., respiratory depression) of opioid receptor agonists” value is listed as “reversed”. Moreover, in assay [4], the opioid self-administration entry is listed as “reduces opioid self-administration”. Further, the “frequency of hypopnea, apnea and hypopnea duration and related arousal” value in the assay with hypopnea and apnea is “improved”.

`CCOc1ccc(C[C@H]2NC(=O)CCSSC[C@@H](C(=O)N3CCC[C@H]3C(=O)N[C@@H](CCCN)C(=O)NCC(N)=O)NC(=O)[C@H](CC(N)=O)NC(=O)[C@H]([C@@H](C)O)NC(=O)[C@H]([C@@H](C)CC)NC2=O)cc1` [atosiban] ([Mpa][dY](Et)ITNCP[Orn]G-NH2; disulfide 1-6): the “effect of OXTN receptor antagonism on OXTN reversal of FENT OIRD” value in assay [1] is reported as “prevents OXTN (5 μg/kg) reversal of FENT OIRD”.
